Test results reported in PMC12731105, “Design and Synthesis of New Quinoxaline Analogs to Regenerate Sensory Auditory Hair Cells” (Cells, 2025).

How the values were obtained:
[1] = test system: zebrafish lateral line neuromast HCs; assay: Zebrafish neuromast morphology scoring (otoferlin/GFP immunofluorescence); format: in vivo, zebrafish (Danio rerio); conditions: 5-dpf zebrafish, 24 h; for Neuromast morphology scores vs control: 50–300 μg/mL in E3 medium, Kruskal–Wallis, p > 0.05
Experimental: The GFP (Tg(brn3c: GFP) zebrafish larvae expressing HC membrane-bound GFP [19] were used to evaluate the effect of Qx-294 and Qx-301 on HCs and SCs of the lateral line neuromasts. Healthy 5-dpf zebrafish, maintained at 28.5 °C, were randomly distributed into Petri dishes at a density of 50 embryos/larvae per 100 mm^2 and exposed to various concentrations of Qx-294 and Qx-301 (50, 100, 150, 200, 250, and 300 μg/mL) diluted in E3 (5 mM NaCl, 0.17 mM KCl, 0.33 mM CaCl2 and 0.33 MgSO4, pH 7.2) medium for 24 h. Following treatment, the animals were transferred to E3 media for 30 min to recover, then cryoanesthetized and fixed with 4% paraformaldehyde (PFA) overnight at 4 °C. The following neuromasts were analyzed in our studies: IO4 (infraorbital 4), OP1 (opercular 1), M2 (mandibular 2), O1 (otic 1), O2, and MI2 (middle 2). An arbitrary scoring protocol was used to rank the morphology of each neuromast after treatment as follows: 1 (normal rosette-like shape, HCs look normal, HC bundles are properly arranged), 2 (normal rosette-like shape, a few HCs appear to be missing, but HC bundles are properly arranged), 3 (normal rosette-like morphology but several HCs are gone and HC bundles look disturbed), 4 (the rosette-like shape is lost in certain areas, few HCs, and few disrupted HC bundles), and 5 (no rosette-like shape, one or two dispersed HCs and no HC bundles). At least 25 animals per treatment were assessed, for a total of 200 across the entire study. The assessment was performed in a double-blind and unbiased manner. Scores were expressed as percentages of the total of neuromasts analyzed per treatment.
Cochlear dissection in mice and immunofluorescence experiments on zebrafish neuromasts and mouse cochleae were performed as previously described. The antibody and labeling kits used in this study included Otoferlin (Developmental Studies Hybridoma Bank, Iowa City, IA, USA, HCS-1), GFP (Novus Biologicals, NB100-1614), and rabbit anti-myosin VIIa (M7a) (Thermo Scientific, Waltham, MA, USA, PA1-936). Species-specific Alexa Fluor-conjugated secondary antibodies were used for detection. Phalloidin conjugated to Alexa 488 (Thermo Scientific, Waltham, MA, USA, O7466) and DAPI were used for labeling stereocilia and the nucleus, respectively.

zebrafish neuromast SCs = assay: EdU proliferation assay in zebrafish neuromasts; format: in vivo, zebrafish (Danio rerio); conditions: p < 0.05; for Number of proliferating (EdU-positive) cells per neuromast vs control: zebrafish, 50–300 μg/mL, 24 h post-treatment
Experimental: (§1) In vitro cell proliferation effects of all ten initial compounds (Figure 1A,B) were tested on HEI-OC1, Neuro-2A and HT-1080 cells by TACS® 3-(4,5-dimethylthiazol-2-yl)-2,5-diphenyltetrazolium bromide (MTT) Cell Proliferation Assay (R&D Systems, Minneapolis, MN, USA, 4890-025-K), following the manufacturer’s protocol. Absorbance was measured with SpectraMax® M Series Multi-Mode Microplate Reader with Soft Max Pro 7.2 GxP Software (Molecular Devices, Sunnyvale, CA, USA), and the average OD in control cells was taken as 100% of viability. Upon selecting the most viable compounds (Qx-294 and Qx-301), we proceeded with in vivo experiments. For zebrafish treatment, animals were incubated for varied times with different concentrations (50, 100, 150, 200, 250, and 300 μg/mL) of Qx-294 or Qx-301 diluted in swimming (E3) media or administered via IP injections. Mice treatment followed the same procedures as described in [18]. Following treatment, animals or tissue samples were incubated in Click-it EdU or Click-it Plus TUNEL kits (Thermo Scientific, Waltham, MA, USA), following the manufacturer’s instructions to label proliferating and apoptotic cells, respectively.
Cell numbers in mouse cochleae or fish, as well as fish neuromast morphologies, were evaluated in 25 zebrafish per drug and treatment group across three experimental runs. […] Images were analyzed at 200X magnification, obtained from different neuromasts and cochlear regions (apex, middle, and base). HCs were quantified in the mouse OC by counting M7a-positive cells, with HC identity further confirmed by phalloidin-labeled stereocilia. Apoptosis and cell proliferation events, on the other hand, were quantified by counting TUNEL- and EdU-positive cells, respectively. […] The number of HCs (IHCs and OHCs) is expressed as units per 200 μm. […] IHCs and OHCs were counted on reconstructed confocal stacks using NIH ImageJ v1.8.0 software. […] Reliability statistics were calculated in SPSS v22.0. […] Fluorescence incorporation following treatment with FM1-43 was quantified according to [19] using ImageJ. […]

HT-1080 = assay: TACS MTT cell proliferation / metabolic activity assay in HT-1080; format: cell-based, human; conditions: HT-1080, 0.1 to 100 μM
Experimental: HEI-OC1 cells derived from the mouse OC (kindly provided by Dr. F. Kalinec) were cultured under permissive conditions (33 °C, 10% CO2) as described in [22]. Additionally, we assessed the activity of Qx-derived compounds in the mouse neuroblastoma cell line, Neuro-2A, and the human fibrosarcoma HT-1080 (ATCC, Manassas, VA, USA) following the standard cell culture guidelines provided by the vendor.
as §1

| Neuromast morphology at 50 and 150 μg/mL ([1]; not statistically significant) | Neuromast morphology at the highest concentrations vs control ([1]; not statistically significant) | SMILES | Neuromast morphology scores vs control [1] | Number of proliferating (EdU-positive) cells per neuromast vs control (zebrafish neuromast SCs) | Proliferative state across all tested concentrations (HT-1080) | Number of EdU-positive SCs compared between the two compounds (zebrafish neuromast SCs; zebrafish neuromasts, Two-Way ANOVA with Bonferroni correction) |
| --- | --- | --- | --- | --- | --- | --- |
| some HC loss was observed | – | c1ccc2nc(N3CCOCC3)cnc2c1 [Qx-294, 2-(morpholine)-quinoxaline] | did not differ significantly from those of the control group | significantly higher number of proliferating cells than the control groups | modest yet active proliferative state | – |
| – | improved morphology | c1ccc2nc(N3CCCC3)cnc2c1 [Qx-301, 2-(pyrrolidine)-quinoxaline] | did not differ significantly from those of the control group | significantly higher number of proliferating cells than the control groups | modest yet active proliferative state | significantly higher for Qx-301- than for Qx-294-treated neuromasts |
